In ChEMBL document CHEMBL1255264, “Mechanism-based pharmacokinetic-pharmacodynamic models of in vitro fungistatic and fungicidal effects against Candida albicans” (Antimicrob Agents Chemother, 2008):
≈ marks a conversion by molar mass, not a printed value.

Columns and labels:
Candida albicans [1] = assay: Antifungal activity against Candida albicans ATCC 3153 assessed as death stimulation in vitro pharmacokinetic-pharmacodynamic model; type: functional, organism-based
Candida albicans [2] = assay: Antifungal activity against Candida albicans ATCC 3153 assessed as maximum killing rate in vitro pharmacokinetic-pharmacodynamic model; type: functional
Candida albicans [3] = assay: Antifungal activity against Candida albicans ATCC 3153 after 48 hrs; type: functional; conditions: ATCC 3153, 48 h
Candida albicans [4] = assay: Antifungal activity against Candida albicans ATCC 3153 in vitro pharmacokinetic-pharmacodynamic model; type: functional, organism-based

CC[C@H](C)C[C@H](C)CCCCCCCCC(=O)N[C@H]1C[C@@H](O)[C@@H](NCCN)NC(=O)[C@@H]2[C@@H](O)CCN2C(=O)[C@H]([C@H](O)CCN)NC(=O)[C@H]([C@H](O)[C@@H](O)c2ccc(O)cc2)NC(=O)[C@@H]2C[C@@H](O)CN2C(=O)[C@H]([C@@H](C)O)NC1=O [CASPOFUNGIN]
EC50 (Candida albicans [1]): 0.000251 µg/mL (≈ 0.00023 µM) | Emax (Candida albicans [2]): 8.04 ×10⁻¹ /hr | MIC (Candida albicans [3]): 0.015 µg/mL (≈ 0.0137 µM)

OC(Cn1cncn1)(Cn1cncn1)c1ccc(F)cc1F [FLUCONAZOLE]
IC50 (Candida albicans [4]): 0.0929 µg/mL (≈ 0.303 µM)
